Structures are written as SMILES.

Details in the first data set: not given
In turn, `CCC(C)[N+](=O)[O-]` (stereo unspecified) showed a boiling point of 140 °C and a log10 vapour pressure (mmHg) of 0.891.

For `Cc1ccc(O)c(C(=O)O)c1`, the melting point came out at 151 °C.

Consider `O=[N+]([O-])c1cc(S(=O)(=O)Nc2ccccc2)ccc1Nc1ccccc1`, for which the melting point was 156 °C and the ready biodegradability result is recorded as “not readily biodegradable”.

Take `Clc1ccc(-c2ccccc2Cl)cc1Cl`: the log10 Henry constant (atm·m³/mol) was -3.8 and the log10 vapour pressure (mmHg) was -3.99.

Take `CCCCCC(=O)O`: the boiling point is 205 °C, the log10 Henry constant (atm·m³/mol) is -6.12, the log10 Koc (L/kg) was determined as 1.46 and the log10 vapour pressure (mmHg) is -1.36. Also, the melting point is -3 °C and the ready biodegradability result is on record as “readily biodegradable”.

With `CC(C)(CO)COC(=O)C(C)(C)CO`, the ready biodegradability entry was “not readily biodegradable”.

Turning to `CCN(CC)CCC1(c2ccccc2)C(=O)Oc2ccccc21` (stereo unspecified), the melting point is 43.4 °C.

In turn, `CCc1cnc(C2=NC(C)(C(C)C)C(=O)N2)c(C(=O)O)c1` (stereo unspecified) came in with a log10 Koc (L/kg) of 0.85 and a melting point of 171 °C.

`CCCC(=O)OC1CCCCC1`: the boiling point is 213 °C.

Regarding `Cc1cccc(C(=O)O)c1O`, the melting point came to 166 °C and the ready biodegradability result is reported as “not readily biodegradable”.

Take `CCCCCCCCC(N)=O`: the melting point came out at 99.5 °C.

For the compound `NC(=O)c1ccc(O)cc1`, the melting point turned out to be 162 °C.

Consider `CCC1CCC(=O)CC1`, for which the boiling point was 193 °C.

Consider `ClC(Cl)I`, for which the boiling point came out at 132 °C.

As for `CCC(=O)O[C@H]1CC[C@H]2[C@@H]3CCC4=CC(=O)CC[C@]4(C)[C@H]3CC[C@]12C`, the melting point was found to be 120 °C.

Turning to `CC(C)=C(C)Cl`, the boiling point was 96 °C.

Regarding `COCCCNc1nc(NC(C)C)nc(SC)n1`, the log10 vapour pressure (mmHg) is -6.55.

On to `Nc1cc(Cl)c(Cl)c(Cl)c1`, for which the melting point turned out to be 99 °C.

Consider `CC(Cl)=CCl`, for which the log10 vapour pressure (mmHg) worked out at 1.96.

For the compound `CCCc1cccc2ccccc12`, the boiling point worked out at 274 °C and the melting point is -8.6 °C.

Turning to `CCSC`, the boiling point worked out at 66.7 °C, the log10 vapour pressure (mmHg) was determined as 2.2 and the melting point is -106 °C.

In the case of `CCCNCCC`, the boiling point is 109 °C, the log10 Henry constant (atm·m³/mol) is -4.29, the log10 Koa came to 3.59 and the log10 vapour pressure (mmHg) came to 1.3. For the same compound, the melting point was -63 °C and the ready biodegradability entry is recorded as “readily biodegradable”.

Regarding `C[N+](C)(C)CCOC(=O)CCC(=O)OCC[N+](C)(C)C.[I-].[I-]`, the melting point was determined as 244 °C.

Compound `COc1ccccc1N=Nc1ccccc1` displayed a melting point of 41 °C.

Consider `CC(C)CN`, for which the boiling point amounted to 68.5 °C, the log10 vapour pressure (mmHg) worked out at 2.14, the melting point is -85 °C and the ready biodegradability entry is listed as “readily biodegradable”.

Take `CCCCCCCC(=O)Oc1c(Br)cc(C#N)cc1Br`: the log10 Koc (L/kg) was found to be 4, the log10 vapour pressure (mmHg) was -5.32, the melting point turned out to be 45.5 °C and the ready biodegradability result is “readily biodegradable”.

`C[C@@H]1CC[C@@]2(OC1)O[C@H]1C[C@H]3[C@@H]4CC[C@H]5C[C@@H](O)CC[C@]5(C)[C@H]4CC(=O)[C@]3(C)[C@H]1[C@@H]2C`: the melting point turned out to be 266 °C.

In the case of `CNC(=O)Nc1ccc(Cl)c(Cl)c1`, the log10 Koc (L/kg) was 2.46.

As for `O=C1c2ccccc2C(=O)c2cc(O)ccc21`, the log10 vapour pressure (mmHg) was -10.2 and the melting point worked out at 306 °C.

Consider `CCCC(=O)C1=C(O)C(C)(C)C(O)=C(Cc2c(OC)cc(O)c(C(=O)CCC)c2O)C1=O`, for which the melting point was 150 °C.

With `CC(=O)OCCc1ccccc1`, the boiling point came out at 233 °C, the log10 Koc (L/kg) stood at 1.89, the log10 vapour pressure (mmHg) was -1.5 and the melting point is -31.1 °C.

`O[C@@H]1CCCC[C@H]1Cl`: the melting point worked out at 29 °C.

In turn, `COc1ccc(C(=O)CCC(=O)O)cc1` yielded a melting point of 149 °C.

In the case of `C=C(C)C(=O)OCCCC`, the boiling point came to 160 °C, the log10 vapour pressure (mmHg) worked out at 0.326, the melting point was -75 °C and the ready biodegradability entry is given as “readily biodegradable”.

As to `C=C1CC[C@H](O)C/C1=C/C=C1\CCC[C@]2(C)[C@@H]([C@H](C)/C=C/[C@H](C)C(C)C)CC[C@@H]12`, the melting point was 116 °C.

Take `C/C=C/C#N`: the melting point is -51.5 °C.

For the compound `Clc1cccc(Cl)c1-c1c(Cl)cccc1Cl`, the log10 Henry constant (atm·m³/mol) is -3.7 and the log10 Koc (L/kg) worked out at 4.9.

On to `NCCNCCNCCNCCN`, for which the boiling point was determined as 342 °C and the melting point was -30 °C.

Compound `CCOCCN` came in with a boiling point of 108 °C.

Take `Clc1ccc(/N=N/c2ccccc2)cc1`: the log10 vapour pressure (mmHg) is -5.7 and the melting point came to 88 °C.

`O=[N+]([O-])c1ccc(CCc2ccc([N+](=O)[O-])cc2)cc1` returned a melting point of 181 °C.

In the case of `Ic1cc(I)cc(I)c1`, the melting point was found to be 184 °C.

As for `CCCC(CCC)C(=O)O`, the boiling point came out at 222 °C and the ready biodegradability entry was “readily biodegradable”.

As to `Cc1ccc(Br)cc1C`, the boiling point was found to be 214 °C and the melting point was -0.2 °C.

In the case of `CN(C)c1ccc(C(=O)c2ccccc2)cc1`, the melting point was 92.5 °C.

For the compound `CC(C)C12C=CC(C)(CC1)OO2` (stereo unspecified), the melting point was found to be 3.3 °C.

`CN1CCN(C(=O)CC(c2ccc(Cl)cc2)(c2ccc(Cl)cc2)c2ccc(Cl)cc2)CC1`: the melting point stood at 214 °C.

In turn, `Brc1cc(Br)c(Oc2cc(Br)c(Br)cc2Br)c(Br)c1` had a logP of 7.82.

Turning to `C#CC(C)(C)NC(=O)c1ccc(F)cc1`, the log10 Koc (L/kg) amounted to 1.68.

For the compound `O=C(O)C(F)(F)C(F)(F)C(=O)O`, the melting point is 119 °C.

Turning to `Cc1ccn2nc(S(=O)(=O)Nc3c(F)cccc3F)nc2n1`, the log10 Koc (L/kg) was 1.45, the log10 vapour pressure (mmHg) was -11.6 and the melting point turned out to be 252 °C.

The compound `Cc1ccsc1/C=C/C1=NCCCN1C` showed a melting point of 240 °C.

As for `BrCCc1ccccc1`, the boiling point is 219 °C, the log10 vapour pressure (mmHg) is -0.612 and the melting point was -65.7 °C.

For the compound `O=CCO`, the log10 Henry constant (atm·m³/mol) was -7.62 and the melting point turned out to be 97 °C.

Take `CC1CCCO1` (stereo unspecified): the boiling point is 78 °C, the log10 Henry constant (atm·m³/mol) is -4.03 and the log10 vapour pressure (mmHg) came out at 1.99.

As to `CCC(C)OC(=O)CC(C)=O` (stereo unspecified), the ready biodegradability entry is listed as “readily biodegradable”.

`CC(CO)(CO)CO`: the boiling point was 283 °C, the melting point is 204 °C and the ready biodegradability entry is recorded as “not readily biodegradable”.

In turn, `CCCOc1ccc([N+](=O)[O-])cc1N` yielded a melting point of 49 °C.

In the case of `O=C(O)c1ccccc1C(=O)O`, the log10 Koc (L/kg) amounted to 1.07, the log10 vapour pressure (mmHg) is -6.2 and the ready biodegradability entry is reported as “readily biodegradable”.

For the compound `CCC(C)(C)C(C)(C)CC`, the boiling point was 170 °C.

As for `CC(=O)COC(C)=O`, the boiling point was 171 °C.

Take `Clc1cccc(-c2cccc(Cl)c2Cl)c1Cl`: the log10 Henry constant (atm·m³/mol) is -4 and the log10 vapour pressure (mmHg) is -4.13.

Regarding `Cc1ccc(C)c(C)c1`, the boiling point is 169 °C, the log10 Henry constant (atm·m³/mol) is -2.21, the log10 biodegradation half-life (days) was found to be 0.602 and the log10 vapour pressure (mmHg) came out at 0.322. Besides, the melting point was -43.8 °C and the ready biodegradability result is “not readily biodegradable”.

`Sc1ccc(Cl)cc1` registered a boiling point of 206 °C and a melting point of 61 °C.

For the compound `Cc1cc([N+](=O)[O-])ccc1N`, the melting point came to 134 °C.

For `CCCCN(CCCC)CCCC`, the boiling point turned out to be 216 °C, the log10 vapour pressure (mmHg) is -1.03, the melting point is -70 °C and the ready biodegradability result is “not readily biodegradable”.

Compound `Cc1ncc(CO)c(N)n1` had a melting point of 198 °C.

`CCSc1nc(NC(C)C)nc(NC(C)C)n1`: the log10 Koc (L/kg) was found to be 3.07, the log10 vapour pressure (mmHg) was -5.8 and the melting point was found to be 105 °C.

In the case of `CN1CCC(OC(c2ccccc2)c2ccccc2)CC1.Cl`, the melting point was determined as 204 °C.

With `Cn1c(=O)c2c(ncn2C)n(C)c1=O`, the melting point came to 238 °C.

Staying with this data set, now noted: fish.
In the case of `O=[N+]([O-])c1cc(S(=O)(=O)Nc2ccccc2)ccc1Nc1ccccc1`, the log10 BCF came to 1.61 and the log10 biotransformation half-life (days) is -0.66.

In the case of `Nc1cc(Cl)c(Cl)c(Cl)c1`, the log10 BCF amounted to 2.36 and the log10 biotransformation half-life (days) was 0.28.

Consider `Clc1cccc(Cl)c1-c1c(Cl)cccc1Cl`, for which the log10 BCF amounted to 3.85.

Consider `Brc1cc(Br)c(Oc2cc(Br)c(Br)cc2Br)c(Br)c1`, for which the log10 BCF was determined as 6.15 and the log10 biotransformation half-life (days) turned out to be 2.03.

For `Clc1cccc(-c2cccc(Cl)c2Cl)c1Cl`, the log10 BCF is 4.23 and the log10 biotransformation half-life (days) turned out to be 2.

Regarding `Cc1ccc(C)c(C)c1`, the log10 BCF came out at 2.08 and the log10 biotransformation half-life (days) is -0.31.

In turn, `CCCCN(CCCC)CCCC` yielded a log10 BCF of 1.4.

The record behind these values is the OPERA property sets (Mansouri et al. 2018).
